The NIST ThermoML archive (doi:10.1007/s10765-005-8590-7)

Experiment: xn = mol fraction of the nth substance listed
Settings: Fluid (supercritical or subcritical phases), Constant-volume piezometry

N [ammonia] + O
Settings	mass density [kg/m3]
275.15 K, 5862 kPa, x1 = 0.0955	967.89
275.15 K, 7362.2 kPa, x1 = 0.0513	984.54
275.15 K, 8702.8 kPa, x1 = 0.064	979.9
275.16 K, 16098 kPa, x1 = 0.047	989.39
275.23 K, 5541.3 kPa, x1 = 0.0644	979.5
276.15 K, 5893.5 kPa, x1 = 0.0999	970.55
277.08 K, 8983.2 kPa, x1 = 0.1386	954.88
277.14 K, 5409.4 kPa, x1 = 0.1086	963.03
277.14 K, 9054.1 kPa, x1 = 0.064	979.8
277.14 K, 16926 kPa, x1 = 0.0606	986.49
277.15 K, 3335.7 kPa, x1 = 0.014	995.99
277.15 K, 4008 kPa, x1 = 0.0302	990.84
277.15 K, 5289 kPa, x1 = 0.1436	951.66
277.15 K, 7604.3 kPa, x1 = 0.0513	984.44
277.18 K, 953.2 kPa, x1 = 0.0591	975.15
277.2 K, 5773.5 kPa, x1 = 0.0644	979.4
277.21 K, 6487 kPa, x1 = 0.0955	967.76
279.08 K, 6161.2 kPa, x1 = 0.0644	979.29
279.11 K, 10157 kPa, x1 = 0.1386	954.73
279.12 K, 6995.3 kPa, x1 = 0.0999	970.36
279.12 K, 7195.5 kPa, x1 = 0.0955	967.64
279.14 K, 3259.7 kPa, x1 = 0.0582	979.2
279.15 K, 3348.5 kPa, x1 = 0.014	995.9
279.15 K, 4150.8 kPa, x1 = 0.0302	990.74
279.15 K, 6475.7 kPa, x1 = 0.1436	951.51
279.15 K, 7945.5 kPa, x1 = 0.0513	984.33
279.17 K, 9525.4 kPa, x1 = 0.064	979.68
280.14 K, 6718.7 kPa, x1 = 0.1086	962.82
281.08 K, 7983 kPa, x1 = 0.0955	967.51
281.11 K, 11383 kPa, x1 = 0.1386	954.58
281.13 K, 10065 kPa, x1 = 0.064	979.57
281.14 K, 6677.8 kPa, x1 = 0.0644	979.17
281.15 K, 3472.7 kPa, x1 = 0.014	995.8
281.15 K, 4392.5 kPa, x1 = 0.0302	990.64
281.15 K, 8371.2 kPa, x1 = 0.0513	984.22
281.19 K, 10108 kPa, x1 = 0.064	979.56
281.22 K, 1795.9 kPa, x1 = 0.0591	974.91
282.15 K, 8409.8 kPa, x1 = 0.1436	951.28
282.16 K, 8309.2 kPa, x1 = 0.0999	970.16
282.8 K, 8732.9 kPa, x1 = 0.0955	967.39
283.12 K, 4275.1 kPa, x1 = 0.0582	978.96
283.13 K, 12686 kPa, x1 = 0.1386	954.43
283.14 K, 8193.3 kPa, x1 = 0.1086	962.61
283.15 K, 3692.3 kPa, x1 = 0.014	995.7
283.15 K, 4731.8 kPa, x1 = 0.0302	990.53
283.15 K, 8198.4 kPa, x1 = 0.1086	962.61
283.15 K, 8879.5 kPa, x1 = 0.0513	984.1
283.15 K, 10706 kPa, x1 = 0.064	979.44
283.17 K, 7273.4 kPa, x1 = 0.0644	979.05
285.09 K, 7901.4 kPa, x1 = 0.0644	978.93
285.15 K, 4011.8 kPa, x1 = 0.014	995.59
285.15 K, 5171.1 kPa, x1 = 0.0302	990.41
285.15 K, 9527 kPa, x1 = 0.0513	983.98
285.15 K, 10464 kPa, x1 = 0.1436	951.05
285.15 K, 10466 kPa, x1 = 0.1436	951.05
285.16 K, 11435 kPa, x1 = 0.064	979.32
285.17 K, 2999.7 kPa, x1 = 0.0591	974.66
285.17 K, 14062 kPa, x1 = 0.1436	954.28
286.14 K, 9868.4 kPa, x1 = 0.1086	962.4
287.06 K, 10858 kPa, x1 = 0.0955	967.09
287.13 K, 5735.3 kPa, x1 = 0.0582	978.69
287.13 K, 12206 kPa, x1 = 0.064	979.19
287.15 K, 4434.3 kPa, x1 = 0.014	995.47
287.15 K, 10223 kPa, x1 = 0.0513	983.85
287.17 K, 8642.4 kPa, x1 = 0.0644	978.79
288.13 K, 11389 kPa, x1 = 0.0999	969.74
288.14 K, 11389 kPa, x1 = 0.0999	969.74
288.15 K, 12628 kPa, x1 = 0.1436	950.81
289.04 K, 4499.1 kPa, x1 = 0.0591	974.4
289.14 K, 6552.7 kPa, x1 = 0.0582	978.56
289.15 K, 4946.6 kPa, x1 = 0.014	995.35
289.15 K, 6317.7 kPa, x1 = 0.0302	990.16
289.15 K, 11020 kPa, x1 = 0.0513	983.72
289.15 K, 11640 kPa, x1 = 0.1386	962.18
289.15 K, 13114 kPa, x1 = 0.064	979.06
289.21 K, 9475.8 kPa, x1 = 0.0644	978.66
291.12 K, 10278 kPa, x1 = 0.0644	978.53
291.13 K, 7445.3 kPa, x1 = 0.0582	978.41
291.13 K, 13172 kPa, x1 = 0.0999	969.52
291.15 K, 5561.2 kPa, x1 = 0.014	995.22
291.15 K, 11884 kPa, x1 = 0.0513	983.58
291.15 K, 14080 kPa, x1 = 0.064	978.92
291.16 K, 13203 kPa, x1 = 0.0955	966.79
292.14 K, 7407.7 kPa, x1 = 0.0302	989.96
292.15 K, 7429.1 kPa, x1 = 0.0302	989.96
293.12 K, 14421 kPa, x1 = 0.0955	966.65
293.13 K, 11186 kPa, x1 = 0.0644	978.39
293.14 K, 8423.6 kPa, x1 = 0.0582	978.27
293.15 K, 6247.6 kPa, x1 = 0.014	995.09
293.16 K, 15112 kPa, x1 = 0.064	978.78
293.22 K, 6453.9 kPa, x1 = 0.0591	974.1
294.15 K, 15125 kPa, x1 = 0.0999	969.3
295.11 K, 8696.2 kPa, x1 = 0.0302	989.75
295.12 K, 9437.2 kPa, x1 = 0.0582	978.12
295.15 K, 7035 kPa, x1 = 0.014	994.95
295.15 K, 12162 kPa, x1 = 0.0644	978.25
295.15 K, 13851 kPa, x1 = 0.0513	983.31
297.15 K, 7909.9 kPa, x1 = 0.014	994.81
297.15 K, 10576 kPa, x1 = 0.0582	977.97
297.21 K, 13180 kPa, x1 = 0.0644	978.11
297.22 K, 8637.1 kPa, x1 = 0.0591	973.79
298.16 K, 10232 kPa, x1 = 0.0302	989.53
299.08 K, 11729 kPa, x1 = 0.0582	977.83
299.15 K, 8841.2 kPa, x1 = 0.014	994.66
299.19 K, 14184 kPa, x1 = 0.0644	977.97
301.02 K, 10950 kPa, x1 = 0.0591	973.5
301.11 K, 15142 kPa, x1 = 0.0644	977.84
301.15 K, 9880.3 kPa, x1 = 0.014	994.51
303.15 K, 10919 kPa, x1 = 0.014	994.37
303.2 K, 14357 kPa, x1 = 0.0582	977.51
305.11 K, 13746 kPa, x1 = 0.0591	973.17
305.15 K, 12107 kPa, x1 = 0.014	994.21
305.21 K, 15774 kPa, x1 = 0.0582	977.35
309.15 K, 14684 kPa, x1 = 0.014	993.9
